Assays:
[1] = test system: Tyrosine-protein kinase ABL1 (Homo sapiens), P00519 [T315I]; settings: Compound concentration 100.0 nM
[2] = test system: Epidermal growth factor receptor (Homo sapiens), P00533 [G719S]; settings: Compound concentration 100.0 nM
[3] = test system: Receptor-type tyrosine-protein kinase FLT3 (Homo sapiens), P36888 [N841I]; settings: Compound concentration 100.0 nM
[4] = target: T1, GABA-A receptor; anion channel (Rattus norvegicus) (UniProt O09028+P15431+P18506+P18508+P19969+P20236+P23574+P23576+P28471+P28473+P30191+P62813+P63079+P63138+Q91ZM7+Q9ES14); settings: Compound concentration 10.0 uM
[5] = target: Phosphatidylinositol 4,5-bisphosphate 3-kinase catalytic subunit delta isoform (Homo sapiens) (UniProt O00329); settings: Compound concentration 100.0 nM
[6] = target: Muscarinic acetylcholine receptor M3 (Homo sapiens) (UniProt P20309); settings: Compound concentration 10.0 uM
[7] = target: Serine/threonine-protein kinase TBK1 (Homo sapiens) (UniProt Q9UHD2); settings: Compound concentration 100.0 nM
[8] = target: Calcium/calmodulin-dependent protein kinase type 1 (Homo sapiens) (UniProt Q14012); settings: Compound concentration 100.0 nM
Sequence of Calcium/calmodulin-dependent protein kinase type 1 (Homo sapiens) (Q14012 whole entry, looked up): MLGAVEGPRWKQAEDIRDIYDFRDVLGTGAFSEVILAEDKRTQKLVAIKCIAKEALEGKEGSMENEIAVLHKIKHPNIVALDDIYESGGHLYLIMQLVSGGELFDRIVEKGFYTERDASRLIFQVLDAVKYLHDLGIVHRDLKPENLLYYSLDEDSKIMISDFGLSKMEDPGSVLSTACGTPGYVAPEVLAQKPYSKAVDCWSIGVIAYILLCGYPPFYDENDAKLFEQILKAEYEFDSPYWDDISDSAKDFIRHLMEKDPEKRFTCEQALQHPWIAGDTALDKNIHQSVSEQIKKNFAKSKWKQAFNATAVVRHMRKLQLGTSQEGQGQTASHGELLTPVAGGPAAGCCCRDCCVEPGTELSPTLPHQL

[9] = target: Macrophage colony-stimulating factor 1 receptor (Homo sapiens) (UniProt P07333); settings: Compound concentration 100.0 nM
[10] = target: Tyrosine-protein kinase Fer (Homo sapiens) (UniProt P16591); settings: Compound concentration 100.0 nM
[11] = test system: Mast/stem cell growth factor receptor Kit (Homo sapiens), P10721 [V559D,V654A]; settings: Compound concentration 100.0 nM
[12] = target: Leucine-rich repeat serine/threonine-protein kinase 2 (Homo sapiens) (UniProt Q5S007); settings: Compound concentration 100.0 nM
[13] = target: Mitogen-activated protein kinase kinase kinase 20 (Homo sapiens) (UniProt Q9NYL2); settings: Compound concentration 100.0 nM
Sequence of Mitogen-activated protein kinase kinase kinase 20 (Homo sapiens) (Q9NYL2 2-800 limits assumed): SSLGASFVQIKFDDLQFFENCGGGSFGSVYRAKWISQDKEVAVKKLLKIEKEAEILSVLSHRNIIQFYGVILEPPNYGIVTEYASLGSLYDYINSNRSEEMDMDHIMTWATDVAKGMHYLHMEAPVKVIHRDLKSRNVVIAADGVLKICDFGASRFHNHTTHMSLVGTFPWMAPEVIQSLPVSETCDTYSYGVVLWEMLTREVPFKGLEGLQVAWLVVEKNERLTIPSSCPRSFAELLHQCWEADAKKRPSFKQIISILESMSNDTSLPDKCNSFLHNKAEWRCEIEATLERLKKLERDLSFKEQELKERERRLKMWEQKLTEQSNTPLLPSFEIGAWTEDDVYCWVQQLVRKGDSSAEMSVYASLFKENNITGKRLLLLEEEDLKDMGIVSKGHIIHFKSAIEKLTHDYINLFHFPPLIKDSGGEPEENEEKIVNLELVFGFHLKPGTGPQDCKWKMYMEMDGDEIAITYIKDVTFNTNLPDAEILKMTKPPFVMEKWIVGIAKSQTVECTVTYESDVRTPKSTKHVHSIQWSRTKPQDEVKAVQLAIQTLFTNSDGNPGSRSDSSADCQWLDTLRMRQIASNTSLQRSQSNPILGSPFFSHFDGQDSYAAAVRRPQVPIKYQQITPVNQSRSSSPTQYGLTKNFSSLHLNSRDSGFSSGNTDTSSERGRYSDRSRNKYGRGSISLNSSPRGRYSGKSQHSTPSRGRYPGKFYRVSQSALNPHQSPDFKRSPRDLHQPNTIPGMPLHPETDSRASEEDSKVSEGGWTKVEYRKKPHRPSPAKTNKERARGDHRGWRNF

[14] = test system: Phosphatidylinositol 4,5-bisphosphate 3-kinase catalytic subunit alpha isoform (Homo sapiens), P42336 [H1047L]; settings: Compound concentration 100.0 nM
[15] = target: Serine/threonine-protein kinase/endoribonuclease IRE1 (Homo sapiens) (UniProt O75460); settings: Compound concentration 100.0 nM
Sequence of Serine/threonine-protein kinase/endoribonuclease IRE1 (Homo sapiens) (O75460 19-977 limits assumed): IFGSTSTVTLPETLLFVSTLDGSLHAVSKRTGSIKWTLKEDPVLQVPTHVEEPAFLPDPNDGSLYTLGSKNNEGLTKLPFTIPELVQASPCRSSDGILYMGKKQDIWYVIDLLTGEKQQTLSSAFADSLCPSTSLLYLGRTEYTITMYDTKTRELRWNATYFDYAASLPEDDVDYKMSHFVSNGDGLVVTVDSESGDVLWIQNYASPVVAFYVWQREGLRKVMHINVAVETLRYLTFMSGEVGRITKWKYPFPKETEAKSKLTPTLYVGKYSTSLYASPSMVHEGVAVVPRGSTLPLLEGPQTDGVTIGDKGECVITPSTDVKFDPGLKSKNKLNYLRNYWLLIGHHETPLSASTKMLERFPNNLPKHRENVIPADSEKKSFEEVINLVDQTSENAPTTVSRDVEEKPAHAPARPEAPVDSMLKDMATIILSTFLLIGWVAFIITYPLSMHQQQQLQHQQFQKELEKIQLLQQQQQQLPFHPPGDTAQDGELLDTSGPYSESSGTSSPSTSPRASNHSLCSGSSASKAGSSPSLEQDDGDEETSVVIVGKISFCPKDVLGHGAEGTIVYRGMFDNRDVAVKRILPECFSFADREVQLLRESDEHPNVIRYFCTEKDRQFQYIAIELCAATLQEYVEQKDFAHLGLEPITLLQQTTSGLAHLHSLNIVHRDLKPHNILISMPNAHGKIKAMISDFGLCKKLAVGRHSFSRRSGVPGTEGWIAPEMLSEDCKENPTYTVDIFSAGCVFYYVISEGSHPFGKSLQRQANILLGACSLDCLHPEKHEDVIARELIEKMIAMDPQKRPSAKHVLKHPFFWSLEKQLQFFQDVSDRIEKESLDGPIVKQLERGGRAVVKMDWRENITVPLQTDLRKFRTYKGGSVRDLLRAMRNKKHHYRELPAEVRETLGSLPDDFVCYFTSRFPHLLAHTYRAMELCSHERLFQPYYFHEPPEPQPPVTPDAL

[16] = target: Insulin receptor-related protein (Homo sapiens) (UniProt P14616); settings: Compound concentration 100.0 nM
[17] = target: T1, GABA-A receptor; anion channel (Rattus norvegicus); settings: Compound concentration 10.0 uM; remark: listed apart in the source
[18] = target: Serine/threonine-protein kinase ULK1 (Homo sapiens) (UniProt O75385); settings: Compound concentration 100.0 nM
Sequence of Serine/threonine-protein kinase ULK1 (Homo sapiens) (O75385 whole entry): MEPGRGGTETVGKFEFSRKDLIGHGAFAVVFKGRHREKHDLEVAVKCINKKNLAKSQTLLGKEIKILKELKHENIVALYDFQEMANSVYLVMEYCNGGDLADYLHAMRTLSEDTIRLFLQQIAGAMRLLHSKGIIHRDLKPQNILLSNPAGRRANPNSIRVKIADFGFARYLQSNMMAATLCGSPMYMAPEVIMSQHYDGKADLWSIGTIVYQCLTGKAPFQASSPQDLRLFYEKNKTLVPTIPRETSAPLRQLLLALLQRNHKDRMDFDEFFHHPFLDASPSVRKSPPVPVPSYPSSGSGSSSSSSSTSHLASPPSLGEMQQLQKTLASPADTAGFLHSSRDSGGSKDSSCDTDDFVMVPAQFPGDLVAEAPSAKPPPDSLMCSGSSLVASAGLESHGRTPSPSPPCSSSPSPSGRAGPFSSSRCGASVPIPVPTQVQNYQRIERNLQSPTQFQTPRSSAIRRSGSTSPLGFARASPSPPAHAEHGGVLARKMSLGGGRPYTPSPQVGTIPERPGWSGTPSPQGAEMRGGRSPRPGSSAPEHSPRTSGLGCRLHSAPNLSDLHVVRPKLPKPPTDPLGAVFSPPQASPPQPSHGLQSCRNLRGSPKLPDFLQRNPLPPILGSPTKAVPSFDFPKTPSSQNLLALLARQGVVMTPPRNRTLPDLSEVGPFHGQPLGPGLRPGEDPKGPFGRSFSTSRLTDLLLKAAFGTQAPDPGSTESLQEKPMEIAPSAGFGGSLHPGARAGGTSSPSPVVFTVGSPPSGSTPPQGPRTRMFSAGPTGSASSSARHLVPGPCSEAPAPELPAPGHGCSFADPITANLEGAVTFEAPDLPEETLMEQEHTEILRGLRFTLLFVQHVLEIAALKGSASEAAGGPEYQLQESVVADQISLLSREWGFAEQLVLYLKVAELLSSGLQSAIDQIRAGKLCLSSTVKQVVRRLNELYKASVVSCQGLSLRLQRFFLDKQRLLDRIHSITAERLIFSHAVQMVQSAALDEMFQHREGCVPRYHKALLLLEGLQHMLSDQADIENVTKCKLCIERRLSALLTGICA

[19] = target: Cyclin-dependent kinase-like 5 (Homo sapiens) (UniProt O76039); settings: Compound concentration 100.0 nM
[20] = target: Ephrin type-B receptor 3 (Homo sapiens) (UniProt P54753); settings: Compound concentration 100.0 nM
[21] = target: Serine/threonine-protein kinase Sgk3 (Homo sapiens) (UniProt Q96BR1); settings: Compound concentration 100.0 nM
[22] = target: Uncharacterized serine/threonine-protein kinase SBK3 (Homo sapiens) (UniProt P0C264); settings: Compound concentration 100.0 nM
[23] = test system: Receptor-type tyrosine-protein kinase FLT3 (Homo sapiens), P36888 [UNDEFINED MUTATION]; settings: Compound concentration 100.0 nM
[24] = target: Serine/threonine-protein kinase Sgk2 (Homo sapiens) (UniProt Q9HBY8); settings: Compound concentration 100.0 nM
[25] = test system: Receptor-type tyrosine-protein kinase FLT3 (Homo sapiens), P36888 [UNDEFINED MUTATION]; settings: Compound concentration 100.0 nM; remark: listed apart in the source
[26] = target: Dual specificity mitogen-activated protein kinase kinase 7 (Homo sapiens) (UniProt O14733); settings: Compound concentration 100.0 nM
[27] = target: Serine/threonine-protein kinase pim-3 (Homo sapiens) (UniProt Q86V86); settings: Compound concentration 100.0 nM
[28] = target: Ribosomal protein S6 kinase alpha-6 (Homo sapiens) (UniProt Q9UK32); settings: Compound concentration 100.0 nM
Sequence of Ribosomal protein S6 kinase alpha-6 (Homo sapiens) (Q9UK32 whole entry): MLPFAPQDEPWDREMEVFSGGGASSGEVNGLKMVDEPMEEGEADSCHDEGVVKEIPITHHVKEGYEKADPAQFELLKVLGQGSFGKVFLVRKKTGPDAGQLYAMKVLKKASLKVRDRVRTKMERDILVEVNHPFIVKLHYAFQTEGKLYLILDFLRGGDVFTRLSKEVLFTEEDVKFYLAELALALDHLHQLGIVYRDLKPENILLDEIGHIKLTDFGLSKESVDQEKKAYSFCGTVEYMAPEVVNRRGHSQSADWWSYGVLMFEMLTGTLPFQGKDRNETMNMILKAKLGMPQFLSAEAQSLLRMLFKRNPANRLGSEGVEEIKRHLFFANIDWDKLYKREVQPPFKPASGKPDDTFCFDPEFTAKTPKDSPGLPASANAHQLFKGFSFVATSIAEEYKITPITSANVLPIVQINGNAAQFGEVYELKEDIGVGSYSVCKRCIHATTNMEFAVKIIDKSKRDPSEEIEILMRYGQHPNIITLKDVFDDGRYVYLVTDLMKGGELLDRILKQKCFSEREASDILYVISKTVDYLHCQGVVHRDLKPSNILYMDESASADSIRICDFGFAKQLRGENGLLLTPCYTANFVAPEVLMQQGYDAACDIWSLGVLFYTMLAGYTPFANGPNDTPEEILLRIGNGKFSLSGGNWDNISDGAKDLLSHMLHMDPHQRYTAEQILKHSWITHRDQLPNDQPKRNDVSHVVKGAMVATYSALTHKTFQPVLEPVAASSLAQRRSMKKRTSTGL

[29] = target: Ephrin type-B receptor 2 (Homo sapiens) (UniProt P29323); settings: Compound concentration 100.0 nM
[30] = target: Ribosomal protein S6 kinase alpha-3 (Homo sapiens) (UniProt P51812); settings: Compound concentration 100.0 nM
[31] = target: Serine/threonine-protein kinase 33 (Homo sapiens) (UniProt Q9BYT3); settings: Compound concentration 100.0 nM
[32] = target: Dual specificity mitogen-activated protein kinase kinase 4 (Homo sapiens) (UniProt P45985); settings: Compound concentration 100.0 nM
[33] = target: Tyrosine-protein kinase JAK1 (Homo sapiens) (UniProt P23458); settings: Compound concentration 100.0 nM
Sequence of Tyrosine-protein kinase JAK1 (Homo sapiens) (P23458 whole entry): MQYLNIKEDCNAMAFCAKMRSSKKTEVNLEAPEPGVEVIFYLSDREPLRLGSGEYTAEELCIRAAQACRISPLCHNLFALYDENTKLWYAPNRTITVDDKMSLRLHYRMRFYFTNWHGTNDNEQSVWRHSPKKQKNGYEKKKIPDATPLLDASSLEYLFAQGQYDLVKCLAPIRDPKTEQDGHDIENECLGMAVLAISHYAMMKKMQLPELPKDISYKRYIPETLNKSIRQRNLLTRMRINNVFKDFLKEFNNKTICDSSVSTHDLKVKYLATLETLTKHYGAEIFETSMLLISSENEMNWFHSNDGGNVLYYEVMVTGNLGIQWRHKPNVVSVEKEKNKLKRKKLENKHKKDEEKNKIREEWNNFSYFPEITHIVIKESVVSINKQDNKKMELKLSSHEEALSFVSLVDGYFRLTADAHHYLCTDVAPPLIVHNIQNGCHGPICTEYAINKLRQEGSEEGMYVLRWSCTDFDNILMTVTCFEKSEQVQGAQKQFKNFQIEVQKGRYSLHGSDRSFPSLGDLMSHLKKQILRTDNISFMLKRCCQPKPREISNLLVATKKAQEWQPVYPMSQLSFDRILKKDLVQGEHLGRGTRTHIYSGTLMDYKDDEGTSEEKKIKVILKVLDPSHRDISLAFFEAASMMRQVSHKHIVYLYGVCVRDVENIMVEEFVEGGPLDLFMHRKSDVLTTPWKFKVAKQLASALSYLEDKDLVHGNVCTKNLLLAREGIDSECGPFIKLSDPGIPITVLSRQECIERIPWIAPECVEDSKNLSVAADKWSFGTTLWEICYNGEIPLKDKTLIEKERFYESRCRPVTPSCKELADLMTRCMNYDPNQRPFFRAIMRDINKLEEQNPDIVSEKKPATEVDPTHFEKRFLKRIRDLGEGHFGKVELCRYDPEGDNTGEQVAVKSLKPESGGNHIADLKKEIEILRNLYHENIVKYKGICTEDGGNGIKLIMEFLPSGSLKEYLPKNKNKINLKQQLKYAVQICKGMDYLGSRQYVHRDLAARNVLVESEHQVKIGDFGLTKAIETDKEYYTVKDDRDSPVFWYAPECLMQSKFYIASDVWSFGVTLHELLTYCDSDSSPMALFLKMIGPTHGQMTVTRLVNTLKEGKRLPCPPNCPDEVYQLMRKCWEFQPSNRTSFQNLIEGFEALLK

[34] = target: Serine/threonine-protein kinase SBK1 (Homo sapiens) (UniProt Q52WX2); settings: Compound concentration 100.0 nM
[35] = target: 5-hydroxytryptamine receptor 1D (Homo sapiens) (UniProt P28221); settings: Compound concentration 10.0 uM
[36] = target: 5'-AMP-activated protein kinase catalytic subunit alpha-2 (Homo sapiens) (UniProt P54646); settings: Compound concentration 100.0 nM
[37] = target: Ephrin type-B receptor 4 (Homo sapiens) (UniProt P54760); settings: Compound concentration 100.0 nM

Cn1nc(C(=O)NCc2ccc(C(=O)O)cc2)cc1-c1ccc2[nH]ccc2c1 [BI 4395]
inactive: residual activity [1] 73% | residual activity [2] 66% | residual activity [3] 100% | inhibition [4] 26.6% | residual activity [5] 97% | inhibition [6] -0.66% | residual activity [7] 77% | residual activity [8] 95% | residual activity [9] 100% | residual activity [10] 93% | residual activity [11] 95% | residual activity [12] 75% | residual activity [13] 80% | residual activity [14] 100% | residual activity [15] 83% | residual activity [16] 98% | inhibition [17] 29.1% | residual activity [18] 83% | residual activity [19] 85% | residual activity [20] 100% | residual activity [21] 96% | residual activity [22] 79% | residual activity [23] 99% | residual activity [24] 54% | residual activity [25] 91% | residual activity [26] 95% | residual activity [27] 91% | residual activity [28] 85% | residual activity [29] 100% | residual activity [30] 70% | residual activity [31] 87% | residual activity [32] 79% | residual activity [33] 84% | residual activity [34] 77% | inhibition [35] 10.1% | residual activity [36] 91% | residual activity [37] 100%

CCOC(=O)c1cc2cc(-c3cc(C(=O)NCc4ccc(C(=O)O)cc4)nn3C)ccc2[nH]1 [BI 4394]
inactive: residual activity [1] 83% | residual activity [2] 100% | residual activity [3] 81% | inhibition [4] 15.3% | residual activity [5] 65% | inhibition [6] 4.89% | residual activity [7] 84% | residual activity [8] 87% | residual activity [9] 100% | residual activity [10] 100% | residual activity [11] 100% | residual activity [12] 81% | residual activity [13] 87% | residual activity [14] 100% | residual activity [15] 90% | residual activity [16] 77% | inhibition [17] 1.07% | residual activity [18] 87% | residual activity [19] 87% | residual activity [20] 90% | residual activity [21] 82% | residual activity [22] 87% | residual activity [23] 87% | residual activity [24] 100% | residual activity [25] 98% | residual activity [26] 97% | residual activity [27] 99% | residual activity [28] 93% | residual activity [29] 100% | residual activity [30] 80% | residual activity [31] 100% | residual activity [32] 93% | residual activity [33] 94% | residual activity [34] 90% | inhibition [35] 3.64% | residual activity [36] 88% | residual activity [37] 99%

Source: ChEMBL document CHEMBL4507281, “Data for DCP probe BI-4394” (2021)
